Assay results taken from PMC7559210, “Verification of P-Glycoprotein Function at the Dermal Barrier in Diffusion Cells and Dynamic “Skin-On-A-Chip” Microfluidic Device” (Pharmaceutics, 2020).

How the values were obtained:
[1] = system: P-glycoprotein; assay type: in vitro ADME
Experimental: (§1) Excised skin samples of both young and aged rats were obtained in the same way. Animals were anaesthetized intraperitoneally with chloral hydrate using a dose of 400 mg/kg. Under anesthesia, the hair of the abdominal skin was shaved off with an electric shaver, then epilated by an epilator cream (ISANA® cream from Rossmann, Burgwedel, Germany). Finally, the skin surface was washed and wiped dry. The abdominal skin was then mechanically sensitized 10 times by tape stripping (10 TS) with leucoplast (BSN Medical GmbH, Hamburg, Germany) to remove the upper layers of dead keratinocytes. The removal of the upper skin layer of the stratum corneum by adhesive tape has become a common practice in recent decades. The determination of the kinetics and penetration depth of different drugs by creating concentration–time profiles is facilitated by the use of the noninvasive method of tape stripping. Tape stripping makes it easier to evaluate the bioequivalence of topical dermatological dosage forms, and also makes it possible to reach detectable concentrations in the dermis and subcutis in preclinical animal models. […] Following these skin preparations, an approximately 1-cm, full-thickness skin incision was made in the caudal part of the abdominal area using scissors. After the first cutting with blunt Metzen scissors, fat, connecting tissue and blood vessels were carefully removed. Then, there were two options for continuing with the preparations, as follows. (1) Fresh skin preparation: Six skin disc-preparations were made from the abdominal, tape-stripped skin (approximately 3 cm in diameter each) for Franz diffusion cell study, or three skin square-preparations (approx. 1.5 cm × 1.5 cm) for skin-on-a-chip experiments. The skin preparations were stored in PPF at room temperature until the initiation of experiments, and were then placed between the donor and acceptor chambers on the cells of the Franz diffusion system or on the chip device. The stratum corneum layer of the skin contacted the test drug formulation, facing the donor chamber, while the dermal/subcutaneous surface contacted the PPF in the acceptor compartments. (2) Frozen skin preparation: Freshly prepared, tape stripped skin preparations were wrapped in an aluminum foil and stored in a deep freezer at −80 °C until the diffusion experiments. On the day of the study, the skin preparations were thawed at room temperature, and then placed on the Franz diffusion cells/chip devices in a similar way as that described for fresh skin preparation.
Hanson 6-Cell Manual Diffusion Test System-type Franz diffusion cells were used in the experiments (Hanson, ABL&E-JASCO Hungary Kft, Budapest, Hungary).
In each unit of the system, there was a heated magnetic stirrer chamber (acceptor compartment), stirred by a helical mixer (Figure 1). A magnet was placed on the bottom of the chamber and the helical mixer was connected to it. The acceptor chambers of the diffusion cells were filled with PPF. […] The diffusion surface was 1.767 cm^2. In the final step, a glass lid was placed onto the donor chambers. In each experiment, six parallel units were used and three cells of them always had the same arrangement with the same conditions. The cells were connected by plastic tubes. In these plastic connectors, distilled water at 32 °C was circulated to mimic the physiological dermal temperature. […] First, 0.5 mL samples were taken every 30 min from the acceptor compartments. After each sample collection, the removed fluid volume was replaced with PPF. Altogether, 60 samples were taken in each experiment, i.e., 10 from each unit. The collected samples were immediately placed on dry ice and stored at −80 °C until bioanalysis.
The dwell time of the transitions was 300 msec. Source conditions were as follows.

[2] = system: P-gp; parameters: method as in PMID 18725258; settings: in vivo penetration experiments; cited from earlier work
[3] = no source given; cited from earlier work
[4] = system: P-glycoprotein; settings: topical PSC-833; erythromycin creams
Experimental: In the current study, a transdermal microdialysis technique was applied to investigate the skin penetration of test compounds through the dermal skin layer in anesthetized rats [24].
First, the epilation and shaving of the abdominal skin surface were performed under slight anesthesia, according to the protocol described in the ex vivo studies section.
The experiments were conducted the day after the skin preparation in order to eliminate the possible effect of the epilator cream and the dermal trauma caused by shaving. Animals were reanesthetized intraperitoneally with chloral hydrate with a dose of 400 mg/kg, and fixed in a supine position. In order to keep their body temperature at 37 °C during the experiment, they were placed on a heating pad. The abdominal skin was wiped dry and mechanically sensitized 10 times by tape-stripping with leucoplast (BSN Medical GmbH, Hamburg, Germany).
Two microdialysis probes (MAB11.8.10, Microbiotech, Stockholm, Sweden) were introduced in parallel at a distance of 2 cm through a guide needle (18G) into the dermal tissue. After the withdrawal of the guide needle, the probe membrane stayed in the dermal tissue, the position of which was previously verified by ultrasonic scanning. Probes were then fixed carefully with tape (Omnisilk, Hartmann, Germany).

[5] = system: P-glycoprotein; settings: fresh young rat skin
Experimental: as §1, with “The stratum corneum layer of the skin contacted the test drug formulation, facing the donor chamber, while the dermal/subcutaneous surface contacted the PPF in the acceptor compartments. (2) Frozen skin preparation: Freshly prepared, tape stripped skin preparations were wrapped in an aluminum foil and stored in a deep freezer at −80 °C until the diffusion experiments. On the day of the study, the skin preparations were thawed at room temperature, and then placed on the Franz diffusion cells/chip devices in a similar way as that described for fresh skin preparation.” left out

**Q.** With C/C=C/C[C@@H](C)C(=O)[C@H]1C(=O)N[C@@H](C(C)C)C(=O)N(C)CC(=O)N(C)[C@@H](CC(C)C)C(=O)N[C@@H](C(C)C)C(=O)N(C)[C@@H](CC(C)C)C(=O)N[C@@H](C)C(=O)N[C@H](C)C(=O)N(C)[C@@H](CC(C)C)C(=O)N(C)[C@@H](CC(C)C)C(=O)N(C)[C@@H](C(C)C)C(=O)N1C [PSC-833, valspodar] as the compound, how does the “effect of PSC-833 pretreatment on erythromycin permeability (AUC)” value ([1]; fresh skins, young and aged, 2% ERY cream, PSC-833 1 mg/mL DMSO, 100 μL, 10 min before, ANOVA, Tukey test) read?
**A.** significant effect on permeability

**Q.** And the “effect of PSC-833 pretreatment on quinidine permeability (AUC)” value ([1]; fresh skins, young and aged, 2% QND cream, ANOVA, Tukey test)?
**A.** statistically relevant effect only on aged subjects

**Q.** What about the “effect of P-gp inhibitor on erythromycin absorption” value ([1]; frozen aged skin, 2% ERY cream) of the same compound?
**A.** opposite effect

**Q.** With CCC(C)n1ncn(-c2ccc(N3CCN(c4ccc(OCC5COC(Cn6cncn6)(c6ccc(Cl)cc6Cl)O5)cc4)CC3)cc2)c1=O (stereo not shown) [itraconazole] as the compound, how does the “drug distribution in the skin after topical application with lack of or inhibition of P-gp” value [2] read?
**A.** decreased drug distributions therein

**Q.** For rhodamine, which “drug distribution in the skin after topical application with lack of or inhibition of P-gp” value [2] is on record?
**A.** decreased drug distributions therein

**Q.** For CC[C@H]1OC(=O)[C@H](C)[C@@H](O[C@H]2C[C@@](C)(OC)[C@@H](O)[C@H](C)O2)[C@H](C)[C@@H](O[C@@H]2O[C@H](C)C[C@H](N(C)C)[C@H]2O)[C@](C)(O)C[C@@H](C)C(=O)[C@H](C)[C@@H](O)[C@]1(C)O [erythromycin, Erythromycin], which “diffusion through frozen/thawed vs fresh skin” value ([1]; 2% ERY cream) is on record?
**A.** enhanced compared to fresh skins

**Q.** And the “permeability in aged vs young skin” value ([1]; 2% ERY cream)?
**A.** increased in the aged skin samples

**Q.** What about the “logP (lipophilicity)” value [3] of the same compound?
**A.** 3.06

**Q.** What about the “effect of P-gp modulation on drug absorption in vivo” value [4] of the same compound?
**A.** moderate but reproducible reduction in drug absorption

**Q.** What about the “dynamics of absorption in the 270-min observation period” value ([5]; 2% suspension cream) of the same compound?
**A.** only the absorption phase could be reached, or the plateau was initiated

**Q.** With C=C[C@H]1C[N@@]2CC[C@H]1C[C@@H]2[C@@H](O)c1ccnc2ccc(OC)cc12 [quinidine] as the compound, how does the “permeability of the controls, aged vs young skin” value ([1]; fresh skins, DMSO pretreated, 2% QND cream) read?
**A.** independent of age

**Q.** What about the “effect of P-gp inhibition on transdermal delivery” value ([5]; 2% gel, PSC-833 pretreatment) of the same compound?
**A.** dramatic reduction in transdermal delivery

**Q.** And the “plateau phase of skin penetration profile” value ([5]; 2% gel, flow 4 μL/min)?
**A.** 90 to 180 min
